Several values for one entry are separate records, joined by “and”; a condition that tells them apart may be missing. Equal values may be shown once.
Legend:
Assay in all cases: FP assay with Cy5-labelled p62 LIR tracer (protein titration and tracer displacement)
[1] = biological target: GABARAP (Homo sapiens, UniProt O95166); format: binding; details: for compound titration GABARAP (displacement curve, FP signal): two replicate columns per compound
[2] = biological target: GABARAPL1 (Homo sapiens, UniProt Q9H0R8); format: binding; details: for compound titration GABARAPL1 (displacement curve, FP signal): two replicate columns per compound; for FP tracer displacement curve signal (compound titration): duplicate values
Chain of GABARAPL1 (Q9H0R8 whole entry): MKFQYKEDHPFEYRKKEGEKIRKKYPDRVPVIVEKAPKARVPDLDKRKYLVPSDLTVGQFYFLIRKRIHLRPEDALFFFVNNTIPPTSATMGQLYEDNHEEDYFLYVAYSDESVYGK

[3] = biological target: LC3C (Homo sapiens, UniProt Q9BXW4); format: binding; details: for compound titration LC3C (displacement curve, FP signal): two replicate columns per compound
Chain of LC3C (Q9BXW4 1-126): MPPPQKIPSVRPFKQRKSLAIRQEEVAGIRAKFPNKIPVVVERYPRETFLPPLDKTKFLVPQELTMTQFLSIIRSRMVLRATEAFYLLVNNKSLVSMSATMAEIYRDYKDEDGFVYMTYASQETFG

[4] = biological target: GABARAPL2 (Homo sapiens, UniProt P60520); details: for normalized FP signal, p62 LIR tracer displacement: GABARAPL2
Chain of GABARAPL2 (P60520 whole entry): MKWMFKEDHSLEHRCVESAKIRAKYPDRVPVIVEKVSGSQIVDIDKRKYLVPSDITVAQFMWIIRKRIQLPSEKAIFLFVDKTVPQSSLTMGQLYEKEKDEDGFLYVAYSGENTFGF

[5] = log10 concentration [M] -3.82391
[6] = log10 concentration [M] -4.1549
[7] = log10 concentration [M] -4.60206
[8] = log10 concentration [M] -5.30103
[9] = log10 concentration [M] -5.69897
[10] = log10 concentration [M] -6.22185
[11] = log10 concentration [M] -6.69897
[12] = log10 concentration [M] -7.30103
[13] = log10 concentration [M] -7.79588
[14] = log10 concentration [M] -8.08092

Chain of GABARAP (O95166 1-116): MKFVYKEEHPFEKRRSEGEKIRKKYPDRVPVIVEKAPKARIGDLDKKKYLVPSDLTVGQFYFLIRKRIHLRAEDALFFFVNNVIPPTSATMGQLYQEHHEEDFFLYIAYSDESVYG

CO[C@@H]1[C@@H](OC(N)=O)[C@@H](O)[C@H](Oc2ccc3c(O)c(NC(=O)c4ccc(O)c(CC=C(C)C)c4)c(=O)oc3c2C)OC1(C)C [compound 12, Novobiocin]
Ki ([1]; FP, p62 LIR-based tracer, GABARAP): 57.2 µM
normalized FP signal, p62 LIR tracer displacement ([1]; GABARAP, log10 concentration [M] -3.82391): 49.3103 and 44.4828
normalized FP signal, p62 LIR tracer displacement ([1]; GABARAP, log10 concentration [M] -4.1549): 63.6207 and 63.4483
normalized FP signal, p62 LIR tracer displacement ([1]; GABARAP, log10 concentration [M] -4.60206): 76.2069 and 82.069
normalized FP signal, p62 LIR tracer displacement ([1]; GABARAP, log10 concentration [M] -5): 86.7241 and 89.3103
normalized FP signal, p62 LIR tracer displacement ([1]; GABARAP, log10 concentration [M] -5.30103): 94.1379 and 92.069
normalized FP signal, p62 LIR tracer displacement ([1]; GABARAP, log10 concentration [M] -5.69897): 87.069 and 88.2759
normalized FP signal, p62 LIR tracer displacement ([1]; GABARAP, log10 concentration [M] -6.22185): 93.1034 and 95.6897
normalized FP signal, p62 LIR tracer displacement ([1]; GABARAP, log10 concentration [M] -6.69897): 96.7241 and 93.1034
normalized FP signal, p62 LIR tracer displacement ([1]; GABARAP, log10 concentration [M] -7.30103): 97.069 and 95.6897
normalized FP signal, p62 LIR tracer displacement ([1]; GABARAP, log10 concentration [M] -7.79588): 90.8621 and 89.1379
normalized FP signal, p62 LIR tracer displacement ([1]; GABARAP, log10 concentration [M] -8.08092): 86.7241 and 92.2414
compound titration GABARAP (displacement curve, FP signal) [1, 5]: 49.3103 and 44.4828
compound titration GABARAP (displacement curve, FP signal) [1, 6]: 63.6207 and 63.4483
compound titration GABARAP (displacement curve, FP signal) [1, 7]: 76.2069 and 82.069
compound titration GABARAP (displacement curve, FP signal) ([1]; log10 concentration [M] -5): 86.7241 and 89.3103
compound titration GABARAP (displacement curve, FP signal) [1, 8]: 94.1379 and 92.069
compound titration GABARAP (displacement curve, FP signal) [1, 9]: 87.069 and 88.2759
compound titration GABARAP (displacement curve, FP signal) [1, 10]: 93.1034 and 95.6897
compound titration GABARAP (displacement curve, FP signal) [1, 11]: 96.7241 and 93.1034
compound titration GABARAP (displacement curve, FP signal) [1, 12]: 97.069 and 95.6897
compound titration GABARAP (displacement curve, FP signal) [1, 13]: 90.8621 and 89.1379
compound titration GABARAP (displacement curve, FP signal) [1, 14]: 86.7241 and 92.2414
Ki ([2]; FP, p62 LIR-based tracer, GABARAPL1): 66.2 µM
normalized FP signal, p62 LIR tracer displacement ([2]; GABARAPL1, log10 concentration [M] -3.82391): 56.4286 and 54
normalized FP signal, p62 LIR tracer displacement ([2]; GABARAPL1, log10 concentration [M] -4.1549): 66.8571 and 68.4286
normalized FP signal, p62 LIR tracer displacement ([2]; GABARAPL1, log10 concentration [M] -4.60206): 83.8571 and 84.7143
normalized FP signal, p62 LIR tracer displacement ([2]; GABARAPL1, log10 concentration [M] -5): 91.2857 and 89.4286
normalized FP signal, p62 LIR tracer displacement ([2]; GABARAPL1, log10 concentration [M] -5.30103): 92.4286 and 94.8571
normalized FP signal, p62 LIR tracer displacement ([2]; GABARAPL1, log10 concentration [M] -5.69897): 90 and 96
normalized FP signal, p62 LIR tracer displacement ([2]; GABARAPL1, log10 concentration [M] -6.22185): 93.7143 and 95.7143
normalized FP signal, p62 LIR tracer displacement ([2]; GABARAPL1, log10 concentration [M] -6.69897): 100.143 and 97.8571
normalized FP signal, p62 LIR tracer displacement ([2]; GABARAPL1, log10 concentration [M] -7.30103): 98.4286 and 98.8571
normalized FP signal, p62 LIR tracer displacement ([2]; GABARAPL1, log10 concentration [M] -7.79588): 94.4286 and 92.2857
normalized FP signal, p62 LIR tracer displacement ([2]; GABARAPL1, log10 concentration [M] -8.08092): 93.8571 and 98.4286
compound titration GABARAPL1 (displacement curve, FP signal) [2, 5]: 56.4286 and 54
compound titration GABARAPL1 (displacement curve, FP signal) [2, 6]: 66.8571 and 68.4286
compound titration GABARAPL1 (displacement curve, FP signal) [2, 7]: 83.8571 and 84.7143
compound titration GABARAPL1 (displacement curve, FP signal) ([2]; log10 concentration [M] -5): 91.2857 and 89.4286
FP tracer displacement curve signal (compound titration) [2, 9]: 90 and 96
FP tracer displacement curve signal (compound titration) [2, 10]: 93.7143 and 95.7143
FP tracer displacement curve signal (compound titration) [2, 11]: 100.143 and 97.8571
FP tracer displacement curve signal (compound titration) [2, 12]: 98.4286 and 98.8571
FP tracer displacement curve signal (compound titration) [2, 13]: 94.4286 and 92.2857
FP tracer displacement curve signal (compound titration) [2, 14]: 93.8571 and 98.4286
Ki ([3]; FP, p62 LIR-based tracer, LC3C): 172 µM
normalized FP signal, p62 LIR tracer displacement ([3]; LC3C, log10 concentration [M] -3.82391): 67.8 and 62.8
normalized FP signal, p62 LIR tracer displacement ([3]; LC3C, log10 concentration [M] -4.1549): 76.2 and 80.2
normalized FP signal, p62 LIR tracer displacement ([3]; LC3C, log10 concentration [M] -4.60206): 85.4 and 91.6
normalized FP signal, p62 LIR tracer displacement ([3]; LC3C, log10 concentration [M] -5): 91 and 93
normalized FP signal, p62 LIR tracer displacement ([3]; LC3C, log10 concentration [M] -5.30103): 89.4 and 92.6
normalized FP signal, p62 LIR tracer displacement ([3]; LC3C, log10 concentration [M] -5.69897): 84.2 and 84.8
normalized FP signal, p62 LIR tracer displacement ([3]; LC3C, log10 concentration [M] -6.22185): 92.6 and 89
normalized FP signal, p62 LIR tracer displacement ([3]; LC3C, log10 concentration [M] -6.69897): 89.2 and 92.2
normalized FP signal, p62 LIR tracer displacement ([3]; LC3C, log10 concentration [M] -7.30103): 89.8 and 92.6
normalized FP signal, p62 LIR tracer displacement ([3]; LC3C, log10 concentration [M] -7.79588): 86 and 89.6
normalized FP signal, p62 LIR tracer displacement ([3]; LC3C, log10 concentration [M] -8.08092): 86.2 and 93.6
compound titration LC3C (displacement curve, FP signal) [3, 5]: 67.8 and 62.8
compound titration LC3C (displacement curve, FP signal) [3, 6]: 76.2 and 80.2
compound titration LC3C (displacement curve, FP signal) [3, 7]: 85.4 and 91.6
compound titration LC3C (displacement curve, FP signal) ([3]; log10 concentration [M] -5): 91 and 93
compound titration LC3C (displacement curve, FP signal) [3, 8]: 89.4 and 92.6
compound titration LC3C (displacement curve, FP signal) [3, 9]: 84.2 and 84.8
compound titration LC3C (displacement curve, FP signal) [3, 10]: 92.6 and 89
compound titration LC3C (displacement curve, FP signal) [3, 11]: 89.2 and 92.2
compound titration LC3C (displacement curve, FP signal) [3, 12]: 89.8 and 92.6
compound titration LC3C (displacement curve, FP signal) [3, 13]: 86 and 89.6
compound titration LC3C (displacement curve, FP signal) [3, 14]: 86.2 and 93.6
Ki [4]: 681 µM
normalized FP signal, p62 LIR tracer displacement [4, 5]: 88.8 and 79.6
normalized FP signal, p62 LIR tracer displacement [4, 6]: 90.4 and 93.6
normalized FP signal, p62 LIR tracer displacement [4, 7]: 94.8 and 107.2
normalized FP signal, p62 LIR tracer displacement ([4]; log10 concentration [M] -5): 97.2 and 105.2
normalized FP signal, p62 LIR tracer displacement [4, 8]: 95.6 and 104.8
normalized FP signal, p62 LIR tracer displacement [4, 9]: 86.4 and 89.6
normalized FP signal, p62 LIR tracer displacement [4, 10]: 100.4 and 99.2
normalized FP signal, p62 LIR tracer displacement [4, 11]: 102 and 95.6
normalized FP signal, p62 LIR tracer displacement [4, 12]: 100.8 and 96.8
normalized FP signal, p62 LIR tracer displacement [4, 13]: 100 and 94.8
normalized FP signal, p62 LIR tracer displacement [4, 14]: 102.4 and 106.8

From PMC11589570, “Critical assessment of LC3/GABARAP ligands used for degrader development and ligandability of LC3/GABARAP binding pockets” (Nature Communications, 2024)
